{"source": "patent US12083196B2", "about": "“Personal cleansing compositions with surfactants for increased foam performance” (ECOLAB USA INC., priority 2020, dated 2024)", "key": {"[1]": {"test": "SITA Foam Analyzer foam creation", "format": "physicochemical", "details": "single surfactant, 1%, FIG. 1", "text": "The reagents used below include: • Alpha-Step® PC-48 is a C10-16 sodium methyl 2-sulfolaurate and disodium 2-sulfolaurate available from Stepan; • Stepan-Mild® L3 is a predominantly C12 reaction product of lauryl alcohol and lactic acid available from Stepan; • SLES is sodium laureth sulfate; • Cola® Teric is an amphoteric sultaine available from Colonial Chemical, Inc.; • Glucopon® […] is an alkyl polyglycoside available from BASF Corporation; • Suga® Nate is a sodium laurylglucosides hydrooxypropylsulfonate available from Colonial Chemicals, Inc; • Lathanol® LAL is a sodium lauryl sulfoacetate available from Stepan. All experiments ran through the SITA Foam Analyzer were as follows: Equipment: • 1) Foaming Apparatus • 2) SITA Software Reagents: • 1) 250 mL of each solution • 2) DI water Preparation: Equipment is prepared by turning the water bath on with ample time to warm up before running tests. Adjust water bath to desired temperature. Quality Assurance: Run a positive and negative control for every experiment. Ensure equipment is clean and free from any residual surfactant chemistry beforehand. In each experiment set, proper differentiation between chemistries can be seen if at least one of the tested chemistries has an “S” curve that depicts a change in the initial foam building and the lathering step. Experimental Procedure: • 1) Prepare water bath • 2) Open the “SITA-foam” software on the computer. […] Foam Generation • i. Series Count (cycles): number of measurement replicates (3-triplicate) • ii. Fill With: Volume of sample liquid (250 mL for each test) • iii. Stir Count: Number of stirrings for each test (70). This is also the number of measurements for each cycle. • iv. Stir Time: Stirring duration of sample (10 sec) • v. Revolution: RPM o the stirrer (900 RMP) • b. Cleansing • i. Click the shower icon to activate the automatic cleansing and rinsing function. The vessel will be cleaned automatically after each cycle of measurements. • ii. Normal cleansing will rinse out the vessel many times. Small cleansing indicates a faster cleansing process. All above parameters can be saved • 5) After setting the parameters, click on “Start Measurement” which is the green “Play” button to proceed with the experiment • 6) After each cycle of experiments automatic cleansing and rinsing is done in preparation for the next cycle of measurements as long as the instrument is connected to tap water or a cleansing liquid reservoir • 7) Each click on the green “Start Measurement” icon opens a new window. The current sample measurement results are all in the same project folder. To rename sample measurement files, right click on the open sample window, and click “save” to rename your sample file • 8) If an error occurs at any point with your sample, the measurement reading can be stopped by clicking the red square “Stop icon” or by pressing the large red button on the machine • 9) Organize the graph generated with the icons in the fourth section of the tool bar: create new plot, add/remove data from plot, change axis properties, and view properties. Click on the “Create new plot” icon to view the plot after the experiment is done or if it is still running. Right click to rename the plot, insert or remove the plot and display the foam buildup, foam decay, or both Establishing initial foaming of the single surfactants is important to establish baselines for comparison for the combinations of various surfactants. To establish the foaming properties of single surfactants, a high amount of each surfactant was analyzed in the SITA Foam Analyzer as described above. The final concentration of each surfactant in solution was 1%. The surfactants tested were sodium lauryl sulfate (SLES), a betaine, Cola® Teric CBS, Glucopon® […], Lathanol® LAL, and Suga® Nate 160NC. […] The compositions were tested for foaming using the SITA Foam Analyzer as described above. […]"}, "[2]": {"tested_on": "Staphylococcus aureus (ATCC 6538), Escherichia coli (ATCC 11229), Enterobacter aerogenes (ATCC 13048), Burkholderia cepacian (ATCC 25416), Pseudomonas …", "test": "Preservative test, bacterial inoculum", "format": "cell-based", "details": "Lathanol LAL in preserved compositions", "description": "(§1) The 7 different compositions in Table 4 were tested for their preservative ability, with composition 11 being a negative control as it lacks either phenoxyethanol or benzoic acid. To test the compositions, a bacterial inoculum and a yeast and mold inoculum were created. The bacterial inoculum comprised of equal parts of Staphylococcus aureus (ATCC 6538), Escherichia coli (ATCC 11229), Enterobacter aerogenes (ATCC 13048), Burkholderia cepacian (ATCC 25416), and Pseudomonas aeruginosa (ATCC 15442). The yeast and mold inoculum comprised of equal parts of Candida albicans (ATCC 10231), Saccharomyces cerevisiae (ATCC 834), and Aspergillus niger (ATCC 16404).\n(§2) The inoculates were incubated for 3 days with the bacterial inoculum at 32° C. and the yeast and mold inoculum at 26° C. The preservative compositions were added, and samples measured at 7, 14, 21, and 28 days. A sample passed if no bacteria or yeast and mod survived after Day 7, conditionally passed if there was a greater than 2.0 log reduction on day 7 when compared to day 3, with no additional growth on days 14, 21, or 28 for the bacterial samples, and if there was not more than a 0.5 log increase from the initial inoculated count at days 14 and 28 for the yeast and mold samples. The results are summarized in Table 5 for bacterial samples and Table 6 for yeast and mold."}, "[3]": {"tested_on": "Candida albicans (ATCC 10231), Saccharomyces cerevisiae (ATCC 834), Aspergillus niger (ATCC 16404)", "test": "Preservative test, yeast and mold inoculum", "format": "cell-based", "details": "Lathanol LAL in preserved compositions", "description": "as §1, §2"}}}
{"compound": "CCCCCCCCCCCCOC(=O)CS(=O)(=O)O.[Na]", "note": "[Lathanol® LAL, sodium lauryl sulfoacetate]", "values": [{"measurement": "onset of foam saturation (in words)", "setting": "[1]", "value": "performing more slowly"}, {"measurement": "interference with preservatives, bacteria (in words)", "setting": "[2]", "value": "does not interfere with the addition of preservatives"}, {"measurement": "interference with antifungal or antimold capabilities (in words)", "setting": "[3]", "value": "does not interfere with the antifungal or antimold capabilities"}]}
{"compound": "C[N+](C)(C)CC(=O)O", "note": "[betaine]", "values": [{"measurement": "onset of foam saturation (in words)", "setting": "[1]", "value": "reached saturation at earlier cycles/readings"}]}
{"compound": "sodium laurylglucosides hydrooxypropylsulfonate [Suga® Nate 160NC]", "values": [{"measurement": "onset of foam saturation (in words)", "setting": "[1]", "value": "performing more slowly"}]}
